Results reported in patent US20240360151A1 (SANOFI, priority 2023, published 2024).

The compounds below were run against T1, NLRP3 inflammasome (Homo sapiens, UniProt Q96P20) (assay: IL-1β secretion assay (NLRP3 IC50) in LPS-primed, nigericin-activated THP-1 cells, HTRF). Details: monocytic THP-1 cells; LPS 10 ng/mL 3 h priming, then compound + nigericin 10 μM 2 h; relative IC50, 10 concentrations, geometric mean.
T1 construct: endogenous in cells; host or cells: THP-1 monocytic cells
Format: cell-based
Procedure: Monocytic THP-1 cells were maintained in RPMI 1640 media (Gibco 21875)+10% FBS, (Gibco 10500)+1% penicillin/streptomycin (Gibco 15140-122). Cells were then plated at 40,000 cells per well in 384-well cell culture plates (CoRNning 3542) and maintained with RPMI1640 (Gibco 11835)+5% FBS (Gibco 10500). Activation of the NLRP3 inflammasome requires both an NF-kB-dependent priming step and the addition of a NLRP3 activator. The priming step was induced by LPS (10 ng/mL, InvivoGen ref tlrl-3pelps) for 3 h at 37° C., then compound, in a 1:3 serial dilution series in DMSO (final concentration DMSO 0.1%), and the activator nigericin (Sigma Aldrich, ref: SML1779) 10 μM (final concentration) were added to the cells and co-incubated for 2 hours. 16 μL supernatant was removed, and IL-1β levels were monitored using an HTRF assay (Human IL1b Kits HTRF Cisbio ref: 62HILBPEH) according to manufacturers' instructions.
Data were expressed as percentage of inhibition (I %) as compared to a maximum signal control containing no small molecule (I %=0%) according to the formula: 1%=(1−((Sample−Min))/((Max−Min)))×100, where: • Sample: Signal obtained in the presence of each compound tested, • Max: Maximum signal in the absence of compound added, • Min: Minimum or background signal obtained in the absence of activation signal.
Relative IC50 (IC50 rel) were obtained from a dose response curve with 10 concentrations. Final IC50 rels are expressed as the geometric mean.
Relative IC50 values were estimated with Biost@t-SPEED v2.4 internal software based on SAS system using the 4-parameter logistic model according to Ratkovsky and Reedy (D. A. Ratkovsky, T. J. Reedy, Choosing near-linear parameters in the four parameters logistic model radioligands and related assays. Biometrics, 42 (1986), 575-582): Y=A+C/((1+exp(−B*(log(X)−M)))), where: • A: Lower asymptote (BOTTOM), • A+C: Upper asymptote (TOP), • M: the logarithm of the concentration estimated at the inflexion point (the logarithm of the relative IC50), • B: Slope at the inflexion point of the curve.

T1 sequence (Q96P20 whole entry): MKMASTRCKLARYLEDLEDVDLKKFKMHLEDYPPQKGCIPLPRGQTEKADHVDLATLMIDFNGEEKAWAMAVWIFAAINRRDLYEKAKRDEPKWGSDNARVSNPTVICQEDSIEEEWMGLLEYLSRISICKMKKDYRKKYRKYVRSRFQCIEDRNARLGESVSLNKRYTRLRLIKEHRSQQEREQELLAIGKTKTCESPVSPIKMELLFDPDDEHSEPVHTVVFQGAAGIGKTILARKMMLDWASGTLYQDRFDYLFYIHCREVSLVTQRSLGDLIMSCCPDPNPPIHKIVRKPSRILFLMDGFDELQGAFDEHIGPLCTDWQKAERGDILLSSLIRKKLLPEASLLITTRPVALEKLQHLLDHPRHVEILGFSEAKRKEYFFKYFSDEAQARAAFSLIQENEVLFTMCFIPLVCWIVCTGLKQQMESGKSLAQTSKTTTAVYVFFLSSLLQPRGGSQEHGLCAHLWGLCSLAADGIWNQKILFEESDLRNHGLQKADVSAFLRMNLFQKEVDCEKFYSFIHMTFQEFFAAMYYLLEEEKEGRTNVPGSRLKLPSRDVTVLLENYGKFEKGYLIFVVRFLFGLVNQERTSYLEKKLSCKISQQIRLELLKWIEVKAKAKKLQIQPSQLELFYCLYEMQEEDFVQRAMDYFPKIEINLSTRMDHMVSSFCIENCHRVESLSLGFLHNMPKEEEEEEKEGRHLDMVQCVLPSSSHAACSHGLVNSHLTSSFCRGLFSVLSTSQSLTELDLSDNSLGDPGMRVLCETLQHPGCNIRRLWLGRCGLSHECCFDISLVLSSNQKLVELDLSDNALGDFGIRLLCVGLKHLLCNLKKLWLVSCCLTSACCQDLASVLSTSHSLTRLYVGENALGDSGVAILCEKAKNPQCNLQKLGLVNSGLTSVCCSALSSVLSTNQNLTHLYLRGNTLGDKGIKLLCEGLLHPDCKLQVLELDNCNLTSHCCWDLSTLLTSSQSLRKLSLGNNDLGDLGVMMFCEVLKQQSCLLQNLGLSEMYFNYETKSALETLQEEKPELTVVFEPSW

Q: Which IC50 does the source give for `CCc1cc(C)cc(O)c1-c1ccc(N2CC[C@@H]3CCN(C)C[C@@H]32)nn1` (racemic) [Example 459, 3-ethyl-5-methyl-2-[6-[rac-(3aS,7aR)-6-methyl-3,3a,4,5,7,7a-hexahydro-2H-pyrrolo[2,3-c]pyridin-1-yl]pyridazin-3-yl]phenol] here?
A: 1 nM

Q: `CCN1CC[C@H]2CCN(c3cc(C)c(-c4ccc(C)cc4O)nn3)[C@H]2C1` (racemic) [Example 460, 2-[6-[rac-(3aS,7aR)-6-ethyl-3,3a,4,5,7,7a-hexahydro-2H-pyrrolo[2,3-c]pyridin-1-yl]-4-methyl-pyridazin-3-yl]-5-methyl-phenol] was tested. Which IC50 did it give?
A: < 0.3 nM

Q: With `Cc1cc(C(F)(F)F)cc(O)c1-c1ccc(N2CC[C@H]3[C@@H]2CCN3C)nn1` (racemic) [Example 484, 3-methyl-2-[6-[rac-(3aS,6aS)-1-methyl-2,3,3a,5,6,6a-hexahydropyrrolo[3,2-b]pyrrol-4-yl]pyridazin-3-yl]-5-(trifluoromethyl)phenol] as the compound, how does the IC50 read?
A: 25 nM

Q: For `Cc1ccc(-c2nnc(N3CC[C@@H]4CCN(C(C)C)C[C@@H]43)cc2C)c(O)c1` (racemic) [Example 528, 5-methyl-2-[4-methyl-6-[rac-(3aS,7aR)-6-isopropyl-3,3a,4,5,7,7a-hexahydro-2H-pyrrolo[2,3-c]pyridin-1-yl]pyridazin-3-yl]phenol], which IC50 is on record?
A: 4.9 nM

Q: `Cc1cc(C(F)(F)F)cc(O)c1-c1ccc(N2CCOC(C(C)(C)O)C2)nn1` (single isomer, unassigned) [Example 52, 2-[6-[2-(1-hydroxy-1-methyl-ethyl)morpholin-4-yl]pyridazin-3-yl]-3-methyl-5-(trifluoromethyl)phenol] was tested. Which IC50 did it give?
A: 1250 nM

Q: For `Cc1cc(C)c(-c2ccc(N3CC4(CCC(O)C4)C3)nn2)c(O)c1` (single isomer, unassigned) [Example 95, 2-[6-(2-hydroxy-4,6-dimethyl-phenyl)pyridazin-3-yl]-2-azaspiro[3.4]octan-6-ol], which IC50 is on record?
A: 2200 nM

Q: How did the IC50 turn out when `Cc1cc(C)c(-c2ccc(N3CCOC([C@H](C)O)C3)nn2)c(O)c1` (single isomer, unassigned) [Example 98] was run?
A: 298 nM

Q: For `Cc1cc(C)c(-c2ccc(N3CCOC([C@H](C)O)C3)nn2)c(O)c1` (single isomer, unassigned) [Example 99], which IC50 is on record?
A: 752 nM

Q: For `Cc1cc(C)c(-c2ccc(N3CCO[C@@H](C(C)O)C3)nn2)c(O)c1` (single isomer, unassigned) [Example 108], which IC50 is on record?
A: 545 nM

Q: With `Cc1cc(C)c(-c2ccc(N3CCO[C@H](C4(N)CC4)C3)nn2)c(O)c1` (single isomer, unassigned) [Example 135] as the compound, how does the IC50 read?
A: 997 nM

Q: `Cc1cc(C)c(-c2ccc(N3CCO[C@@H](C4(N)CC4)C3)nn2)c(O)c1` (single isomer, unassigned) [Example 136] was tested. Which IC50 did it give?
A: 3030 nM

Q: Which IC50 does the source give for `Cc1cc(C)c(-c2ccc(N3CCO[C@H](CC(=O)N(C)C)C3)nn2)c(O)c1` (single isomer, unassigned) [Example 150] here?
A: 1790 nM

Q: Which IC50 does the source give for `Cc1cc(C)c(-c2ccc(N3CCO[C@@H](CC(=O)N(C)C)C3)nn2)c(O)c1` (single isomer, unassigned) [Example 151] here?
A: 1170 nM

Q: How did the IC50 turn out when `CCC(=O)C1CN(c2ccc(-c3c(C)cc(C)cc3O)nn2)CCO1` (single isomer, unassigned) [Example 156] was run?
A: 1060 nM

Q: For `Cc1cc(C(F)(F)F)cc(O)c1-c1ccc(N2CC[C@@H]3CN(C)C[C@@H]32)nn1` (single isomer, unassigned) [Example 271], which IC50 is on record?
A: 690 nM

Q: How did the IC50 turn out when `Cc1cc(C(F)(F)F)cc(O)c1-c1ccc(N2CCO[C@@H](CF)C2)nn1` (single isomer, unassigned) [Example 283] was run?
A: 135 nM

Q: With `Cc1cc(C(F)(F)F)cc(O)c1-c1ccc(N2CCC[C@H](CO)C2=O)nn1` (single isomer, unassigned) [Example 287] as the compound, how does the IC50 read?
A: 115 nM

Q: `Cc1cc(C(F)(F)F)cc(O)c1-c1ccc(N2CCC[C@@H](CO)C2=O)nn1` (single isomer, unassigned) [Example 288] was tested. Which IC50 did it give?
A: 143 nM

Q: How did the IC50 turn out when `Cc1cc(C(F)(F)F)cc(O)c1-c1ccc(N2CCO[C@@H]3CCN(C)C[C@H]32)nn1` (single isomer, unassigned) [Example 301] was run?
A: 868 nM

Q: With `CC(=O)N1CC[C@@H]2OCCN(c3ccc(-c4c(C)cc(Cl)cc4O)nn3)[C@@H]2C1` (single isomer, unassigned) [Example 304] as the compound, how does the IC50 read?
A: 142 nM

Q: For `Cc1cc(Cl)cc(O)c1-c1ccc(N2CCO[C@H]3CCN(C)C[C@H]32)nn1` (single isomer, unassigned) [Example 307], which IC50 is on record?
A: 410 nM

Q: With `Cc1cc(C(F)(F)F)cc(O)c1-c1ccc(N2CC[C@H](CO)C2=O)nn1` (single isomer, unassigned) [Example 325] as the compound, how does the IC50 read?
A: 275 nM

Q: For `Cc1cc(C(F)(F)F)cc(O)c1-c1ccc(N2CC[C@@H](CO)C2=O)nn1` (single isomer, unassigned) [Example 326], which IC50 is on record?
A: 198 nM

Q: With `Cc1cc(C(F)(F)F)cc(O)c1-c1ccc(N2CCO[C@H](CC#N)C2)nn1` (single isomer, unassigned) [Example 327] as the compound, how does the IC50 read?
A: 292 nM

Q: `Cc1cc(C(F)(F)F)cc(O)c1-c1ccc(N2CCO[C@@H](CC#N)C2)nn1` (single isomer, unassigned) [Example 328] was tested. Which IC50 did it give?
A: 219 nM

Q: With `Cc1cc(C)c(-c2ccc(N3CC(=O)N[C@@H](CO)C3)nn2)c(O)c1` (single isomer, unassigned) [Example 329] as the compound, how does the IC50 read?
A: 711 nM

Q: `Cc1cc(C)c(-c2ccc(N3CC(=O)N[C@H](CO)C3)nn2)c(O)c1` (single isomer, unassigned) [Example 330] was tested. Which IC50 did it give?
A: 987 nM

Q: For `CNCC[C@@H]1CN(c2ccc(-c3c(C)cc(C(F)(F)F)cc3O)nn2)CCO1` (single isomer, unassigned) [Example 331], which IC50 is on record?
A: 1080 nM

Q: `CNCC[C@H]1CN(c2ccc(-c3c(C)cc(C(F)(F)F)cc3O)nn2)CCO1` (single isomer, unassigned) [Example 332] was tested. Which IC50 did it give?
A: 396 nM

Q: For `Cc1cc(C(F)(F)F)cc(O)c1-c1ccc(N2CCO[C@H]3CN(C)C[C@H]32)nn1` (single isomer, unassigned) [Example 333], which IC50 is on record?
A: 460 nM

Q: With `Cc1cc(C(F)(F)F)cc(O)c1-c1ccc(N2CCO[C@@H]3CN(C)C[C@@H]32)nn1` (single isomer, unassigned) [Example 334] as the compound, how does the IC50 read?
A: 73 nM

Q: `CC(=O)N1CCC2OCCN(c3ccc(-c4c(C)cc(C(F)(F)F)cc4O)nn3)C2C1` (single isomer, unassigned) [Example 336] was tested. Which IC50 did it give?
A: 1160 nM

Q: With `CC(=O)N1C[C@@H]2OCCN(c3ccc(-c4c(C)cc(C(F)(F)F)cc4O)nn3)[C@@H]2C1` (single isomer, unassigned) [Example 348] as the compound, how does the IC50 read?
A: 199 nM

Q: With `CC(=O)N1CC[C@@H]2OCCN(c3ccc(-c4c(C)cc(C(F)(F)F)cc4O)nn3)[C@H]2C1` (single isomer, unassigned) [Example 349] as the compound, how does the IC50 read?
A: 953 nM

Q: Which IC50 does the source give for `CC(=O)N1C[C@H]2OCCN(c3ccc(-c4c(C)cc(C(F)(F)F)cc4O)nn3)[C@H]2C1` (single isomer, unassigned) [Example 352] here?
A: 375 nM

Q: Which IC50 does the source give for `Cc1cc(C)c(-c2ccc(N3CC[C@H]4CCN(C)C[C@H]43)nn2)c(O)c1` (single isomer, unassigned) [Example 383] here?
A: 1010 nM

Q: `Cc1cc(C(F)(F)F)cc(O)c1-c1ccc(N2CC[C@H]3CCNC[C@H]32)nn1` (single isomer, unassigned) [Example 393] was tested. Which IC50 did it give?
A: 461 nM

Q: With `CC(=O)N1CC[C@H]2CCN(c3ccc(-c4c(C)cc(C)cc4O)nn3)[C@H]2C1` (single isomer, unassigned) [Example 413] as the compound, how does the IC50 read?
A: 500 nM

Q: For `CC(=O)N1CC[C@@H]2CCN(c3ccc(-c4c(C)cc(C)cc4O)nn3)[C@@H]2C1` (single isomer, unassigned) [Example 414], which IC50 is on record?
A: 699 nM

Q: `Cc1cccc(O)c1-c1ccc(N2CC[C@@H]3CCN(C)C[C@@H]32)nn1` (single isomer, unassigned) [Example 415] was tested. Which IC50 did it give?
A: 4660 nM

Q: Which IC50 does the source give for `Cc1cc(C(F)(F)F)cc(O)c1-c1ccc(N2CCOC(CO)C2=O)nn1` (single isomer, unassigned) [Example 419] here?
A: 127 nM

Q: Which IC50 does the source give for `Cc1cc(C(F)(F)F)cc(O)c1-c1ccc(N2CCOC(CO)C2=O)nn1` (single isomer, unassigned) [Example 420] here?
A: 601 nM

Q: For `CCc1cccc(O)c1-c1ccc(N2CC[C@@H]3CCN(C)C[C@@H]32)nn1` (single isomer, unassigned) [Example 422], which IC50 is on record?
A: 1140 nM

Q: With `CN1CC[C@@H]2CCN(c3ccc(-c4c(O)cccc4C(F)(F)F)nn3)[C@@H]2C1` (single isomer, unassigned) [Example 426] as the compound, how does the IC50 read?
A: 952 nM

Q: With `Cc1cc(C)c(-c2ccc(N3CCO[C@@H]4C[C@@H](O)C[C@@H]43)nn2)c(O)c1` (single isomer, unassigned) [Example 466] as the compound, how does the IC50 read?
A: 100 nM
